Tests used:
RIPK1 = RIPK1 (Homo sapiens (Human), UniProt Q13546); assay: In vitro kinase assay (Eurofins Kinase Profiler), IC50; type: biochemical; conditions: 0.001-10 μM, read-out: RIPK 1 (IC50)
Experimental: In vitro kinase assays were conducted using Kinase Profiler services provided by Eurofins. The experimental method was as follows: the small molecule compound to be tested (0.001-10 μM), the protein kinase to be tested were incubated with a buffer containing substrate, 10 mM magnesium acetate, and [γ-^33P-ATP], the reaction was started by adding Mg\TPmix, after incubation for a period of time at room temperature, a 3% phosphate solution was added to the buffer to stop the reaction. Subsequently, 10 μL of the reaction mixture was quantitatively pipetted onto P30 filter paper, which was washed three times with 75 mM phosphate solution and then once with methanol. The P30 filter paper was air-dried and scintillation fluid was added for scintillation counting.

HT-29 cells = assay: Protection against programmed necrosis of HT-29 cells (TNF α/Smac mimetic/Z-VAD-FMK, CCK8); type: cell-based; conditions: Homo sapiens, TNF α/Smac mimetic/Z-VAD-FMK induced 24 h, CCK8, read-out: HT-29 (EC50)
Experimental: In vitro protection against programmed necrosis of HT-29 cells was conducted by ourselves.
DMEM medium was purchased from Gibco Inc., penicillin and streptomycin were purchased from HyClone Inc., TNF α was purchased from PeproTech Inc., Smac mimetic and Z-VAD-FMK were purchased from Selleck Inc., CCK8 was purchased from Medchem Express Inc.
HT-29 cells (colon cancer cells) were cultured in DMEM+10% FBS+Penicillin/Streptomycin medium. During the experiments, HT-29 cells in logarithmic growth phase were harvested, seeded in a 96-well plate at specific numbers per well (typically 8×10^3 cells/well of adherent cells) and cultured overnight in a 37° C., 5% CO2 cell culture incubator. The next day, the compounds to be tested were diluted with culture medium to the corresponding concentrations and added into the corresponding wells of a 96-well plate, with 3 replicate wells for each sample, and a Vehicle control group and a blank Control group containing only culture medium were set at the same time. […] The absorbance was measured at 495 nm wavelength using a microplate reader, and the protection rate of the drug on the cells necrosis was calculated according to the following formula:
Protection rate of cell necrosis=[(X−C0)/(C−C0)]×100%
Wherein, C, C0, and X represent the mean absorbance values of the Vehicle control group, Blank control group and Drug treatment group, respectively.

Chain of RIPK1 (Q13546 whole entry): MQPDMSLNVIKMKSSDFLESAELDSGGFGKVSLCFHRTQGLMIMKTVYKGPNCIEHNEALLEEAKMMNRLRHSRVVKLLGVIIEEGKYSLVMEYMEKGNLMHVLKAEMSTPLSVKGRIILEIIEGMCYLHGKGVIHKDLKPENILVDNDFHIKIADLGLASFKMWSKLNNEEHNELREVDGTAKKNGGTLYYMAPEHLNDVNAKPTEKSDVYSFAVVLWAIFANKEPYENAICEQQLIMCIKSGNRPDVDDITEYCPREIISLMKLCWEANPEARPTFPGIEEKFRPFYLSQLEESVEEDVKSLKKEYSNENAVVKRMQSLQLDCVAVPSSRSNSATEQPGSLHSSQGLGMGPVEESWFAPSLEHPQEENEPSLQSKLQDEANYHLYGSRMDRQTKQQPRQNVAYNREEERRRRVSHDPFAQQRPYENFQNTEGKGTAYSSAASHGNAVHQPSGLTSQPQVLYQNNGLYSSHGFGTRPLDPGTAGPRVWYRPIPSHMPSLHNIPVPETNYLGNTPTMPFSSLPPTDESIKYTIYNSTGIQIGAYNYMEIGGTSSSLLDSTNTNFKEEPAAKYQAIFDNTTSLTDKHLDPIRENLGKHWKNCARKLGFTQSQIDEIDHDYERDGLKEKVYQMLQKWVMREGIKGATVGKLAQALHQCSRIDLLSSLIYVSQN

SMILES | IC50 (RIPK1) [nM] | EC50 (HT-29 cells) [nM]
COc1ccc(CNC(=O)c2c[nH]c3ccc(-c4ccc5nc(NC(=O)C6CC6)sc5c4)cc23)cc1 [Compound 1] | 10 to 100 | 10 to 100
O=C(NCc1ccc(F)c(F)c1)c1c[nH]c2ccc(-c3ccc4nc(NC(=O)C5CC5)sc4c3)cc12 [Compound 2] | 10 to 100 | 100 to 1000
O=C(NCc1cc(F)cc(F)c1)c1c[nH]c2ccc(-c3ccc4nc(NC(=O)C5CC5)sc4c3)cc12 [Compound 3] | 10 to 100 | 10 to 100
O=C(NCc1cccc(F)c1)c1c[nH]c2ccc(-c3ccc4nc(NC(=O)C5CC5)sc4c3)cc12 [Compound 4] | 10 to 100 | 10 to 100
O=C(NCc1cc(C(F)(F)F)cc(C(F)(F)F)c1)c1c[nH]c2ccc(-c3ccc4nc(NC(=O)C5CC5)sc4c3)cc12 [Compound 5] | 100 to 1000 | ≥ 1000
O=C(NCc1ccc(F)cc1)c1c[nH]c2ccc(-c3ccc4nc(NC(=O)C5CC5)sc4c3)cc12 [Compound 6] | 100 to 1000 | 10 to 100
N#Cc1ccc(CNC(=O)c2c[nH]c3ccc(-c4ccc5nc(NC(=O)C6CC6)sc5c4)cc23)cc1 [Compound 7] | 10 to 100 | 10 to 100
O=C(NCc1cccc(C(F)(F)F)c1)c1c[nH]c2ccc(-c3ccc4nc(NC(=O)C5CC5)sc4c3)cc12 [Compound 8] | 10 to 100 | 1 to 10
O=C(NCc1ccc(F)cc1F)c1c[nH]c2ccc(-c3ccc4nc(NC(=O)C5CC5)sc4c3)cc12 [Compound 9] | 10 to 100 | 1 to 10
O=C(NCc1cccc([N+](=O)[O-])c1)c1c[nH]c2ccc(-c3ccc4nc(NC(=O)C5CC5)sc4c3)cc12 [Compound 10] | 100 to 1000 | 100 to 1000
COc1cc(CNC(=O)c2c[nH]c3ccc(-c4ccc5nc(NC(=O)C6CC6)sc5c4)cc23)cc(OC)c1 [Compound 11] | 100 to 1000 | ≥ 1000
COc1cccc(CNC(=O)c2c[nH]c3ccc(-c4ccc5nc(NC(=O)C6CC6)sc5c4)cc23)c1 [Compound 12] | 100 to 1000 | ≥ 1000
Cc1ccc(CNC(=O)c2c[nH]c3ccc(-c4ccc5nc(NC(=O)C6CC6)sc5c4)cc23)cc1 [Compound 13] | 10 to 100 | 1 to 10
O=C(NCc1cccc2ccccc12)c1c[nH]c2ccc(-c3ccc4nc(NC(=O)C5CC5)sc4c3)cc12 [Compound 14] | ≥ 1000 | ≥ 1000
Cc1cccc(CNC(=O)c2c[nH]c3ccc(-c4ccc5nc(NC(=O)C6CC6)sc5c4)cc23)c1 [Compound 15] | 10 to 100 | 10 to 100
O=C(NCc1ccc(C(F)(F)F)cc1)c1c[nH]c2ccc(-c3ccc4nc(NC(=O)C5CC5)sc4c3)cc12 [Compound 16] | 10 to 100 | 10 to 100
O=C(NCc1ccco1)c1c[nH]c2ccc(-c3ccc4nc(NC(=O)C5CC5)sc4c3)cc12 [Compound 17] | 10 to 100 | 10 to 100
O=C(NCc1cccs1)c1c[nH]c2ccc(-c3ccc4nc(NC(=O)C5CC5)sc4c3)cc12 [Compound 18] | 10 to 100 | 1 to 10
O=C(NCc1cccc(OC(F)(F)F)c1)c1c[nH]c2ccc(-c3ccc4nc(NC(=O)C5CC5)sc4c3)cc12 [Compound 19] | 10 to 100 | 1 to 10
O=C(NCc1ccncc1)c1c[nH]c2ccc(-c3ccc4nc(NC(=O)C5CC5)sc4c3)cc12 [Compound 20] | ≥ 1000 | ≥ 1000
O=C(NCc1ccccc1F)c1c[nH]c2ccc(-c3ccc4nc(NC(=O)C5CC5)sc4c3)cc12 [Compound 21] | 10 to 100 | 1 to 10
O=C(NCc1cccc(Cl)c1)c1c[nH]c2ccc(-c3ccc4nc(NC(=O)C5CC5)sc4c3)cc12 [Compound 22] | 10 to 100 | 1 to 10
O=C(NCc1cccc(Br)c1)c1c[nH]c2ccc(-c3ccc4nc(NC(=O)C5CC5)sc4c3)cc12 [Compound 23] | 100 to 1000 | 1 to 10
O=C(NCc1ccccc1C(F)(F)F)c1c[nH]c2ccc(-c3ccc4nc(NC(=O)C5CC5)sc4c3)cc12 [Compound 24] | 100 to 1000 | 10 to 100

SMILES | IC50 (RIPK1) [nM] | EC50 (HT-29 cells) [nM]
O=C(NCc1cc(F)ccc1F)c1c[nH]c2ccc(-c3ccc4nc(NC(=O)C5CC5)sc4c3)cc12 [Compound 25] | 10 to 100 | < 1
COc1ccc(CNC(=O)c2c[nH]c3ccc(-c4ccc5nc(NC(=O)C6CC6)sc5c4)cc23)cc1OC [Compound 26] | 100 to 1000 | ≥ 1000
O=C(NCc1ccccc1)c1c[nH]c2ccc(-c3ccc4nc(NC(=O)C5CC5)sc4c3)cc12 [Compound 27] |  | 10 to 100
CC(C)c1ccc(CNC(=O)c2c[nH]c3ccc(-c4ccc5nc(NC(=O)C6CC6)sc5c4)cc23)cc1 [Compound 28] | 100 to 1000 | ≥ 1000
CC(C)(C)c1ccc(CNC(=O)c2c[nH]c3ccc(-c4ccc5nc(NC(=O)C6CC6)sc5c4)cc23)cc1 [Compound 29] | 100 to 1000 | 100 to 1000
C[C@H](NC(=O)c1c[nH]c2ccc(-c3ccc4nc(NC(=O)C5CC5)sc4c3)cc12)c1ccc(F)cc1 [Compound 30] | 10 to 100 | < 1
C[C@@H](NC(=O)c1c[nH]c2ccc(-c3ccc4nc(NC(=O)C5CC5)sc4c3)cc12)c1ccc(F)cc1 [Compound 31] | 100 to 1000 | 100 to 1000
COc1ccc([C@@H](C)NC(=O)c2c[nH]c3ccc(-c4ccc5nc(NC(=O)C6CC6)sc5c4)cc23)cc1 [Compound 32] | 10 to 100 | 1 to 10
COc1ccc([C@H](C)NC(=O)c2c[nH]c3ccc(-c4ccc5nc(NC(=O)C6CC6)sc5c4)cc23)cc1 [Compound 33] | 10 to 100 | < 1
C[C@@H](NC(=O)c1c[nH]c2ccc(-c3ccc4nc(NC(=O)C5CC5)sc4c3)cc12)c1cccc(F)c1 [Compound 35] | 100 to 1000 | 10 to 100
C[C@@H](NC(=O)c1c[nH]c2ccc(-c3ccc4nc(NC(=O)C5CC5)sc4c3)cc12)c1cccc(Cl)c1 [Compound 36] | 100 to 1000 | 100 to 1000
C[C@H](NC(=O)c1c[nH]c2ccc(-c3ccc4nc(NC(=O)C5CC5)sc4c3)cc12)c1cccc(Cl)c1 [Compound 37] | 10 to 100 | 1 to 10
COc1cccc([C@H](C)NC(=O)c2c[nH]c3ccc(-c4ccc5nc(NC(=O)C6CC6)sc5c4)cc23)c1 [Compound 38] | 10 to 100 | 1 to 10
COc1cccc([C@@H](C)NC(=O)c2c[nH]c3ccc(-c4ccc5nc(NC(=O)C6CC6)sc5c4)cc23)c1 [Compound 39] | 100 to 1000 | 10 to 100
C[C@H](NC(=O)c1c[nH]c2ccc(-c3ccc4sc(NC(=O)C5CC5)nc4c3)cc12)c1cccc(F)c1 [Compound 40] | 100 to 1000 | 10 to 100
C[C@H](NC(=O)c1c[nH]c2ccc(-c3ccc(NC(=O)C4CC4)nc3)cc12)c1cccc(F)c1 [Compound 41] | 100 to 1000 | 100 to 1000
C[C@H](NC(=O)c1c[nH]c2ccc(-c3ccc(NC(=O)C4CC4)cc3)cc12)c1cccc(F)c1 [Compound 42] | 100 to 1000 | ≥ 1000
C[C@H](NC(=O)c1c[nH]c2ccc(-c3cnc(NC(=O)C4CC4)nc3)cc12)c1cccc(F)c1 [Compound 43] | ≥ 1000 | ≥ 1000
C[C@H](NC(=O)c1c[nH]c2ccc(-c3ccc4nc(NC(=O)C5CC5)ncc4c3)cc12)c1cccc(F)c1 [Compound 44] | 100 to 1000 | 10 to 100
C[C@H](NC(=O)c1c[nH]c2ccc(-c3ccc4nc(NC(=O)C5CC5)nn4c3)cc12)c1cccc(F)c1 [Compound 45] | 10 to 100 | 10 to 100
C[C@H](NC(=O)c1c[nH]c2ccc(-c3ccc4nc(NC(=O)C5CCC5)sc4c3)cc12)c1cccc(F)c1 [Compound 47] | 10 to 100 | 1 to 10
C[C@H](NC(=O)c1cn(C)c2ccc(-c3ccc4nc(NC(=O)C5CC5)nn4c3)cc12)c1cccc(F)c1 [Compound 90] | 100 to 1000 | 
C[C@H](NC(=O)c1cn(C)c2ccc(-c3ccc4c(NC(=O)C5CC5)n[nH]c4c3)cc12)c1cccc(F)c1 [Compound 110] | < 1 | 
